Experimental data from patent US10954258B2, “STAT3 dimerization inhibitors” (H. LEE MOFFITT CANCER CENTER AND RESEARCH INSTITUTE, INC., priority 2012, dated 2021).

Experiments:
Type in all cases: cell-based, human
H460 cells [1] = assay: anchorage independent growth by soft agar assay, H460; conditions: low activated STAT3 level
Description: Soft agar colony formation assays were performed in 12-well plate as described in Balasis, et al., Clin. Cancer. […] Colonies were allowed to grow for 3-4 weeks, and quantified by staining with 1 mg/mL MTT (Sigma, St. Louis, Mo., USA) overnight.
Several cell lines were used, some with persistently Y705 phosphorylated STAT3 and others without (FIG. 9A).

[2] = tested on: STAT3-DNA binding activity in MDA-MB-468 and A-549 cells; assay: STAT3-DNA binding filter plate assay on nuclear extracts; conditions: 1, 2 or 4 hours
Description: Nuclear extract preparation was carried out as described in Yu, et al., Science 1995; 269(5220):81-83. The STAT3-DNA binding filter plate assay was performed following the manual of the filter plate assay kit (Signosis, Sunnyvale, Calif.), as described for NFkB (Ying, et al., Blood 2011; 117(4):1301-1307). The TF Binding buffer was mixed with the STAT3 probe (biotin labeled STAT3 DNA binding sequence) and nuclear extract and incubated at 16° C. for 30 minutes to form the STAT3-DNA complex. The STAT3-DNA complex was then separated from free probe by using a filter plate. After several steps of binding and washing, bound STAT3 probe is retained on the filter in the corresponding well of Filer Plate and the free DNA probe is removed. The bound pre-labeled STAT3 probe was then eluted from the filter plate by centrifuge with elution buffer. Eluted probes were then hybridized into 96-well Hybridization Plate for quantitative analysis. The captured STAT3 probe was further detected by conjugation with streptavidin-HRP. The chemiluminescence of each well was detected by 2104 EnVisionR Multilabel Reader of PerkinElmer (Pekin Elmer, Waltham, Mass., USA) within 5 minutes after mixture with substrates. […]

[3] = tested on: MDA-MB-468 cells transiently transfected with vector or STAT3C; assay: STAT3-C rescue: western blotting, MTT, migration and invasion
Text: To this end, MDA-MB-468 were transfected cells with STAT3-C, then treated the cells with S3I-1757 and processed the cells for western blotting, cell growth, migration and invasion.

H460 cells [4] = assay: wound healing (migration) assay, H460; conditions: low levels of P-STAT3
[5] = tested on: MDA-MB-468, MDA-MB-231 and A-549 cells; assay: Matrigel invasion assay, cells with activated STAT3; conditions: 48 hours
Description: Invasion assay was performed in BD BioCoat™ Matrigel® Invasion Chamber in 24-well plates. A549, MDA-MB-468, MDA-MB-231 and H460 cells were seeded at 25,000 cells/insert in the top chamber over the Matrigel. The bottom chamber contains 20% FBS as the “chemoattractant.” Vehicle, S3I-1756, or S3I-1757 were added the following day. The cells were incubated for 48 hours, after which the cells in the top chamber were carefully removed and the filter membranes containing the invaded cells on the outside of the filter were fixed with methanol, stained with crystal violet and photographed.

STAT3 binding to EGFR = target: T1, STAT3 binding to EGFR (Mus musculus, UniProt P42227); assay: co-immunoprecipitation of EGFR and P-STAT3 with HA-STAT3 after EGF stimulation; conditions: HA-STAT3/FLAG-STAT3/HEK293 cells stimulated with EGF
T1 construct: expressed in transfected cells; host or cells: HEK293 stably co-expressing HA-STAT3 and FLAG-STAT3; EGFR endogenous; stimulated with 100 ng/ml EGF
T1 sequence (P42227 whole entry): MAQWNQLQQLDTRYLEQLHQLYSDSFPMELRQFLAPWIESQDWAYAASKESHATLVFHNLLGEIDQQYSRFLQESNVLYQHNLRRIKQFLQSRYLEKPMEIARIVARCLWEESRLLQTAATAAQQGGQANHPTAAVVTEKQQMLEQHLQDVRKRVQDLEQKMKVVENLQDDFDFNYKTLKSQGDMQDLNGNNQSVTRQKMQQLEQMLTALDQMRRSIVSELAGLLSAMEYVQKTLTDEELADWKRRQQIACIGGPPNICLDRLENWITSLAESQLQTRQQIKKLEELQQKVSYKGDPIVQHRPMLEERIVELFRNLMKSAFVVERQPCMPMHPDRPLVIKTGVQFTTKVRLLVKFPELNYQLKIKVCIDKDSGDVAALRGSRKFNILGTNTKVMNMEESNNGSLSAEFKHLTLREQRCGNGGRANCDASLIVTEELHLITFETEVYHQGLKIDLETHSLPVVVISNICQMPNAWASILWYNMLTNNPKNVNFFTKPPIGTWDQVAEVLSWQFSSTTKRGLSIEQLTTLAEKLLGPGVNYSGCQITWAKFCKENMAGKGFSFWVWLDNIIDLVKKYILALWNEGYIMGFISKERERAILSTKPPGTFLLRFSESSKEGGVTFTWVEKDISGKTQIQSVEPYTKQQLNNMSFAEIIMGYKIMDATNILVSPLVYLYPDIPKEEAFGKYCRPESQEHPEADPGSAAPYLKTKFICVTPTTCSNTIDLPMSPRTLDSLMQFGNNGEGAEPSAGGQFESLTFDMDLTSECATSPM
Description: For EGF stimulation group, HEK-293/FLAG-STAT3/HASTAT3 cells were treated by 100 ng/ml EGF for 30 minutes before making cell lysate. Protein A or G agarose (EMD Millipore, Billerica, Mass., USA) was washed twice with PBS and restore to 50% slurry with PBS. 500 μg of lysate were pre-cleared by mixture of protein A and protein G-agarose for 1 h at 4° C. and then remove protein A and G-agarose by centrifuge at 1300 rpm for 3 minutes. And then 500 μg of lysate was immunoprecipitated with 50 ng of HA antibody overnight at 4° C. on shaker and then capture the immunocomplex by adding 100 μl Protein A and G agarose/sepharose bead slurry for 1 hour at 4° C. Samples were washed five times with lysis buffer and then boiled in 5×SDS-PAGE sample buffer and run on SDS-PAGE gel. Protein was transferred to nitrocellulose membrane and then blotted as described above for HA, FLAG, pSTAT3, EGFR, and STAT3.
Therefore, it was determined if the intracellular reciprocal binding of 2 full-length STAT3 proteins is inhibited. To this end, an assay was developed to measure directly STAT3-STAT3 dimerization in intact cells by cloning HA-tagged STAT3 and FLAG-tagged STAT3, generating HEK293 cells that stably co-express HA-STAT3 and FLAG-STAT3 and using these cells for coimmunoprecipitation and co-localization. […]

[6] = tested on: STAT3-responsive promoter-firefly luciferase reporter (pLucTKS3); assay: luciferase reporter assay, STAT3-responsive promoter
Description: MDA-MB-468 cells were plated into 12-well plate with 4×10^5 cells per well. The cells were transiently transfected with pLucSRE, pLucTKS3 or STAT3-C with β-gal and then were treated with vehicle, S3I-1756 or S3I-1757 for 48 hours. Then cytosolic extracts of equal total protein were prepared from S3I-1757-treated or -untreated and analyzed for luciferase activity using a TD-20/20 luminometer (Turner Designs, Sunnyvale, Calif., USA) described by us previously.
To this end, MDA-MB-468 cells were transiently co-transfected with a STAT3-responsive promoter-firefly luciferase reporter (pLucTKS3) and 3-gal reporter used to normalize the transfection efficacy. To determine the selectivity of S3I-1757 to suppress STAT3-dependent over STAT3-independent transcriptional activation, MDA-MB-468 cells were also co-transfected with SRE promoter-renilla luciferase reporter (pLucSRE) and β-gal reporter. […] STAT3-C spontaneously dimerizes via disulfide bonds in the absence of tyrosine phosphorylation and is therefore not predicted to be inhibited by a small molecule that is designed to mimic phosphotyrosine binding.

[7] = tested on: P-STAT3 in the nucleus of MDA-MB-468 cells; assay: P-STAT3 nuclear accumulation by immunofluorescence
Description: MDA-MB-468 cells were plated at 4000 cells/well in 8-chamber slide. […] Cells were fixed, washed, and permeabilized as describe above. Specimens were then blocked in 1% bovine serum albumin (BSA) for 30 min and incubated with anti-pSTAT3 (Cell Signaling), antibody at 1:50 dilution at 4° C. overnight. Subsequently, cells were rinsed 4-5 times in PBS, incubated with Alexa Fluor secondary antibody for 1 hour at room temperature in the dark. Specimens were then washed 5 times with PBS, covered with cover slides with [sequence] mounting medium containing DAPI (Vector Lab, Inc., Burlingame, Calif.), and examined immediately under Zeiss Upright Fluorescence Microscope (Zeiss, Thornwood, N.Y., USA).

[8] = tested on: P-STAT3, P-Erk, P-Akt, Bcl-xL, Survivin, MMP9 and Cyclin D1 in MDA-MB-468 cells; assay: western immunoblotting of P-STAT3, P-Akt, P-Erk and STAT3 target genes; conditions: 18 hours
Description: MDA-MB-468 cells were treated with vehicle (DMSO), S3I-1757 at 50 μM, 100 μM and 200 μM, and S3I-1756 at 200 μM for 18 hours. Cells were then lysed with RIPA buffer (20 mM Tris-HCl (pH 7.4), 5 mM EDTA, 10 mM Na4P2O7, 100 mM NaF, 2 mM Na3VO4, 1% NP-40.1 mM PMSF and 10 mg/ml aprotinin). The cell lysates were denatured by boiling with 5×SDS-PAGE sample buffer for 5 minutes and run on SDS-PAGE gel. The proteins were then transferred to membranes that were blocked with 5% non-fat milk in Tris Buffer Saline with 0.1% Tween-20 (TBST) buffer for 30 minutes at room temperature, and incubated with primary antibodies (pY705STAT3, pAKT, AKT, pERK1/2, MMP9, and CyclinDi) 4° C. overnight at dilution of 1:1000 in 3% BSA, followed by washing and incubation with secondary antibody at dilution of 1:1000 in 5% non-milk Tris Buffer Saline with 0.1% Tween-20 (TBST) buffer for 1 hours at room temperature. The membranes were then washed with 1×PBS buffer for 10 minutes for 3 times and developed with ECL kit (PerkinElmer, Waltham, Mass., USA).
To this end, MDA-MB-468 cells were treated with vehicle, S3I-1756 or increasing concentration of S3I-1757 and processed for western blotting.

[9] = tested on: MDA-MB-231 and A-549 cells; assay: wound healing (migration) assay, cells with persistently activated STAT3
Description: A549, MDA-MB-231 and H460 cells were seeded at 6×10^5 cells per dish into 60 mm plate and allowed to grow overnight. Wounds were made the following day by scratching the cells with pipette tips (1-10 μL). Cells were treated with vehicle, S3I-1756 or S3I-1757 and allowed to migrate into the scratched area for 16 hours in regular growth medium. The migration of cells was visualized at 10× magnification using a Leica Microscope at time 0 (right before the drug was added) and 16 hours after vehicle, S3I-1756, or S3I-1757 treatments.
The cancer cells were cultured with serum-starved medium for 8 hours before scratching the cells with a pipette tip and treating with increasing concentrations of S3I-1757 for 24 hours. […] Finally, the ability of S3I-1757 to inhibit selectively invasion was determined.

[10] = MDA-MB-468 transfected with STAT3-C

SMILES: O=C(O)c1cc(N(Cc2ccc(C3CCCCC3)cc2)C(=O)c2ccc(Oc3ccccc3)cc2)ccc1O [Compound 20g, 5-(N-(4-Cyclohexylbenzyl)-4-phenoxybenzamido)-2-hydroxybenzoic acid]
- anchorage-independent growth (soft agar), H460 (H460 cells [1]): little effect
- activated STAT3 in nuclear extracts capable of binding the STAT3 DNA binding probe [2]: contained less activated STAT3 capable of binding the STAT3 DNA binding probe
- apoptosis induction (caspase 3, PARP) ([3]; MDA-MB-468, FIG. 11A): induced activation of caspase 3 and PARP cleavage
- expression levels of BclxL, cyclin D1 and survivin ([3]; MDA-MB-468, FIG. 11A): inhibited the expression levels of these proteins
- down regulation of BclxL, cyclin D1, survivin and apoptosis with ectopic STAT3-C [3, 10]: ectopic expression of STAT3-C inhibited the ability of S3I-1757 to down regulate
- inhibition of migration and invasion, STAT3-C-transfected cells [3, 10]: partially rescued
- proliferation/survival by MTT with STAT3-C ([3]; MDA-MB-468 transfected with STAT3-C, FIG. 11B): STAT3-C inhibited S3I-1757 from inhibiting the proliferation/survival
- migration and invasion, vector-transfected cells ([3]; MDA-MB-468 transfected with vector DNA): inhibited the migration and invasion
- migration (wound healing), H460 (H460 cells [4]): minimally affected
- invasion, MDA-MB-468, MDA-MB-231 and A-549 [5]: inhibited invasion
- EGFR and P-STAT3 co-immunoprecipitated with HA-STAT3 (STAT3 binding to EGFR): inhibited these interactions
- STAT3-dependent luciferase activity (pLucTKS3) ([6]; MDA-MB-468, 48 hours): less luciferase activity
- STAT3-dependent transcriptional activity in cells transfected with STAT3-C [6, 10]: rescued from the S3I-1757 inhibition
- levels of p-STAT3 in the nucleus ([7]; 2 hours and 4 hours): dramatically decreased
- P-STAT3 nuclear accumulation ([7]; 18 hours, various concentrations): inhibited P-STAT3 nuclear accumulation in a concentration-dependent manner starting at 50 μM
- expression of STAT3 target genes Bcl-xL, survivin, cyclin D1, MMP9 [8]: inhibited the expression of STAT3 target genes
- phosphorylation of STAT3-Y705 (western blotting) [8]: inhibited the phosphorylation of STAT3-Y705 in a concentration dependent manner starting at 50 μM
- selectivity of inhibition over Akt and Erk1/2 phosphorylation [8]: selective for STAT3 over Akt and Erk1/2 phosphorylation
- migration (wound healing), MDA-MB-231 and A-549 [9]: prevented this migration
